# ChEMBL document CHEMBL1134397, “Synthesis, structure-activity relationships, and pharmacokinetic profiles of nonpeptidic alpha-keto heterocycles as novel inhibitors of human chymase” (J Med Chem, 2001)
# The source made the active and inactive calls. No cut-off for these calls is given here. Where a SMILES comes first, the peptide text is derived from it. The star is where a group is joined. CF3 = FC(F)(F)*
# Tests used:
# Chymotrypsinogen A = Chymotrypsinogen A (Bos taurus, UniProt P00766); test: Inhibitory activity against alpha chymotrypsin from bovine pancreas.
# Chymase [1] = biological target: T1, Chymase (Homo sapiens, UniProt P23946); test: Inhibitory activity evaluated against chymase from human heart.
# T1 sequence (P23946 whole entry): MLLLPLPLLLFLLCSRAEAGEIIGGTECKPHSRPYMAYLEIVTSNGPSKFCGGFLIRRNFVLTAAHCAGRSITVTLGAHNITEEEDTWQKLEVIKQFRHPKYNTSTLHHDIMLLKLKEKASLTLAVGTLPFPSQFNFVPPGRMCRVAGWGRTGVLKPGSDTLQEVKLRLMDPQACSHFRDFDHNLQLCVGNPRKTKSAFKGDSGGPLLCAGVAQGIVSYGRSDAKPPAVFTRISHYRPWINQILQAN
# Chymase [2] = biological target: T1, Chymase; test: inhibitory activity was evaluated against chymase from human heart.
# [3] = biological target: T2, Neutrophil elastase (Homo sapiens) (UniProt P08246); test: Inhibitory activity against human leukocyte elastase (10 uM); No inhibition
# T2 sequence (whole entry): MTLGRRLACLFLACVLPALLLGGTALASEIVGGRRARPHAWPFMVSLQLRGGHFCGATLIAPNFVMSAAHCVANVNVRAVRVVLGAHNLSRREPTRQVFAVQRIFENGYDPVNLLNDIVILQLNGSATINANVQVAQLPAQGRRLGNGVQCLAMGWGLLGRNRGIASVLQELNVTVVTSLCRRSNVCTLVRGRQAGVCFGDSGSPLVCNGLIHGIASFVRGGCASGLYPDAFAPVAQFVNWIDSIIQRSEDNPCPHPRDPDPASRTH
# Chymase [4] = biological target: T3, Chymase (Rattus norvegicus, UniProt P50339); test: Inhibitory activity against rat peritoneal chymase
# T3 sequence (P50339 whole entry): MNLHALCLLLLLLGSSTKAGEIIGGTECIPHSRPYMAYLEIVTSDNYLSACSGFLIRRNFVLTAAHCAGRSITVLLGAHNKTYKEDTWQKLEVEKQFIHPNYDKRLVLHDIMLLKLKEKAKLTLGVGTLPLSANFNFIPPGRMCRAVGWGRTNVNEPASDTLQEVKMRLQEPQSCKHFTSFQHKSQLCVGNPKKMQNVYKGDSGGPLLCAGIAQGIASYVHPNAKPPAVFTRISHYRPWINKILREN
# Cathepsin G = biological target: T4, Cathepsin G (Homo sapiens, UniProt P08311); test: Inhibitory activity against human cathepsin G
# T4 sequence (P08311 whole entry): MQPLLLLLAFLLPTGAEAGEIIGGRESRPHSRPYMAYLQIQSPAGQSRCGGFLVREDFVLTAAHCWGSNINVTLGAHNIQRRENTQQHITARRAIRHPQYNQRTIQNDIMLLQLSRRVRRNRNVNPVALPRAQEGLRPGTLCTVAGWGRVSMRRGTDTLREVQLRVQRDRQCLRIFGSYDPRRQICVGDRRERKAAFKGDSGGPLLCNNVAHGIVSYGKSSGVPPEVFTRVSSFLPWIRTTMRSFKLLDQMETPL
# Mast cell protease 9 = biological target: T5, Mast cell protease 9 (Mus musculus, UniProt O35164); test: Inhibitory activity against mouse peritoneal chymase
# T5 sequence (O35164 whole entry): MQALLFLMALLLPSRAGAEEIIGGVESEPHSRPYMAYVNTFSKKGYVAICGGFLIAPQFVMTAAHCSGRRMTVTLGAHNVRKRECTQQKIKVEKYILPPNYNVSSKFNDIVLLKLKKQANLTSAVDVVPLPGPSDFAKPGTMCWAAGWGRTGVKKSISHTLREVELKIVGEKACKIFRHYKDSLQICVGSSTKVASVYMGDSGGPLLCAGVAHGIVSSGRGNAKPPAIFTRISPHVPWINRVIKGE
# [5] = biological target: Prothrombin (Homo sapiens) (UniProt P00734); test: Inhibitory activity against human plasma thrombin (10 uM); No inhibition; format: cell-free
# [6] = biological target: Angiotensin-converting enzyme (Homo sapiens) (UniProt P12821); test: Inhibitory activity against human angiotensin I converting enzyme (10 uM); No inhibition
# Chymase [7] = biological target: T1, Chymase
# [8] = Steady state volume distribution was determined; steady state(ss); format: ADME, organism-based; settings: rat, in vivo
# [9] = Pharmacokinetic parameter AUC was determined when a dose of 1 mg/kg was administered intravenously; format: ADME, organism-based; design: dose 1 mg/kg, route intravenous; settings: rat, in vivo, iv
# [10] = Pharmacokinetic parameter AUC was determined when a dose of 1 mg/kg was administered orally; format: ADME, organism-based; design: dose 1 mg/kg, route oral; settings: rat, in vivo, po
# [11] = Maximum plasma concentration was measured when a dose of 1 mg/kg is administered orally; format: ADME, organism-based; design: dose 1 mg/kg, route oral; settings: rat, po
# [12] = Pharmacokinetic parameter plasma clearance was determined at when a dose of 1 mg/kg is administered; format: ADME, organism-based; design: dose 1 mg/kg; settings: rat
# [13] = Time to reach Cmax when a dose of 1 mg/kg is administered orally; format: ADME, organism-based; design: dose 1 mg/kg, route oral; settings: rat, in vivo, po
# [14] = Oral Bioavailability was determined; format: ADME, organism-based; settings: rat, in vivo, read-out: BA
# [15] = Half life was evaluated when a dose of 1 mg/kg was administered intravenously to rats; format: ADME, organism-based; design: dose 1 mg/kg, route intravenous; settings: rat, in vivo, iv
# [16] = biological target: Prothrombin (Homo sapiens) (UniProt P00734); test: inhibitory activity against human plasma thrombin (10 uM); No inhibition; format: cell-free
# Chain of Angiotensin-converting enzyme (Homo sapiens) (P12821 whole entry): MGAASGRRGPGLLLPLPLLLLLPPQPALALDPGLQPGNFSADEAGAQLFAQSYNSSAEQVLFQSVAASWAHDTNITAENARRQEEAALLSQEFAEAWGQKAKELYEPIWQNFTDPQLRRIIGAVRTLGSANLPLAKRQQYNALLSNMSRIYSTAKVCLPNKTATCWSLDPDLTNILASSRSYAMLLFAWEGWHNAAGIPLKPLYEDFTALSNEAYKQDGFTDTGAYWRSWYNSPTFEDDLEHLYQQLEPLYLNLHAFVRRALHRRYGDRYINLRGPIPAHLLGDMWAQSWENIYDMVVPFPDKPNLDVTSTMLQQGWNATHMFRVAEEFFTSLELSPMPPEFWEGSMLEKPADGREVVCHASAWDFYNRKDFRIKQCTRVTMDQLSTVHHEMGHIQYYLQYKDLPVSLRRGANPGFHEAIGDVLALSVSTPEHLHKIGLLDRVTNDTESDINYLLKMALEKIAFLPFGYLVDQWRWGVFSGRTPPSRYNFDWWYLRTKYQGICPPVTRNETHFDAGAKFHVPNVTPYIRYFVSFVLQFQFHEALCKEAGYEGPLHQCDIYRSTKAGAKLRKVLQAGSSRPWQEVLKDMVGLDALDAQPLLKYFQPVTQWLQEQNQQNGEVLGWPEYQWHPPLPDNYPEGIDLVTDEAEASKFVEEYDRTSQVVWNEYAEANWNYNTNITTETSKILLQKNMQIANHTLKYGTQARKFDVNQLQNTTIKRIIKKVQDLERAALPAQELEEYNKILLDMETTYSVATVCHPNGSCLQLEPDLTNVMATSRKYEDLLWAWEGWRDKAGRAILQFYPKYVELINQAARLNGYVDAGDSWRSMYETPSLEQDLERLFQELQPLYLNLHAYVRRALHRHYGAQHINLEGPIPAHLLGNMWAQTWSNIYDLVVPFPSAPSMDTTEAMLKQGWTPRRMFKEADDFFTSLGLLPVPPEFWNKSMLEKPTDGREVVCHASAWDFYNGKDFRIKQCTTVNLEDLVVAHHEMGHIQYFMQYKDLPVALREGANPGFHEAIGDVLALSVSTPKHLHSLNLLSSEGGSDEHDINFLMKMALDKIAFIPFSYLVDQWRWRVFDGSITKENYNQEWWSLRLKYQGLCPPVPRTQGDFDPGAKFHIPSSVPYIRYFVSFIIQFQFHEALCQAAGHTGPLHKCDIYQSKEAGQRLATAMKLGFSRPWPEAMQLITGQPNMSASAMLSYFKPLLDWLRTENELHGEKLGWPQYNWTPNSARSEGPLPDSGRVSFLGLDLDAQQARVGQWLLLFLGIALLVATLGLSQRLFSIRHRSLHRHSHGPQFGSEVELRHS
Ki (Chymotrypsinogen A),Ki (Chymase [1]),Compound,other results
467 nM,43.5 nM,COC(=O)c1ccc2oc(C(=O)C(Cc3ccccc3)NC(=O)Cn3c(-c4ccncc4)ncc(N)c3=O)nc2c1 (stereo not drawn),
60 nM,,Nc1ccc2oc(C(=O)C(Cc3ccccc3)NC(=O)Cn3c(-c4ccc(F)cc4)ncc(N)c3=O)nc2c1 (stereo not drawn),
477 nM,30 nM,CCOC(=O)c1ccc2oc(C(=O)C(Cc3ccccc3)NC(=O)Cn3c(-c4ccc(F)cc4)ncc(N)c3=O)nc2c1 (stereo not drawn),
11500 nM,,COC(=O)c1ccc2oc(C(=O)C(Cc3ccccc3)NC(=O)Cn3c(-c4cccc([N+](=O)[O-])c4)ncc(N)c3=O)nc2c1 (stereo not drawn),
45.1 nM,,COC(=O)c1ccc2oc(C(=O)C(Cc3ccccc3)NC(=O)Cn3c(-c4cccnc4)ncc(N)c3=O)nc2c1 (stereo not drawn),Ki (Chymase [2]): 77.4 nM
23.3 nM,59.5 nM,CCN(CC)C(=O)c1ccc2oc(C(=O)C(Cc3ccccc3)NC(=O)Cn3c(-c4ccc(F)cc4)ncc(N)c3=O)nc2c1 (stereo not drawn),
52.9 nM,22.6 nM,COC(=O)c1ccc2oc(C(=O)C(Cc3ccccc3)NC(=O)Cn3c(-c4ccc(F)cc4)ncc(N)c3=O)nc2c1 (stereo not drawn),NA [3]: inactive; Ki (Chymase [4]): 103 nM; Ki (Cathepsin G): 720 nM; Ki (Mast cell protease 9): 40.4 nM; NA [5]: inactive; NA [6]: inactive; Ki (Chymase [7]): 3.68 nM
71.3 nM,,COC(=O)c1ccc2nc(C(=O)C(Cc3ccccc3)NC(=O)Cn3c(-c4ccc(F)cc4)ncc(N)c3=O)oc2c1 (stereo not drawn),
943 nM,4.85 nM,COC(=O)c1ccc2oc(C(=O)C(Cc3ccccc3)NC(=O)Cn3c(-c4cccc(OC)c4)ncc(N)c3=O)nc2c1 (stereo not drawn),Vd [8]: 0.469 L/kg; AUC [9]: 108000 ng·h/mL; AUC [10]: 20800 ng·h/mL; Cmax [11]: 396 ng/mL; clearance [12]: 0.168 mL/min/kg; Tmax [13]: 6 h; bioavailability [14]: 19.3%; half-life [15]: 35.7 h; NA [3]: inactive; Ki (Chymase [4]): 86.6 nM; Ki (Mast cell protease 9): 63.9 nM; NA [16]: inactive; NA [6]: inactive; Ki (Chymase [7]): 1.12 nM

# More lines, now with the values behind:
Compound,Ki (Chymotrypsinogen A),Ki (Chymase [1]),other results
Nc1cnc(-c2ccc(F)cc2)n(CC(=O)NC(Cc2ccccc2)C(=O)c2nc3ncccc3o2)c1=O (stereo not drawn),60.5 nM,60.6 nM,
CCNC(=O)c1ccc2oc(C(=O)C(Cc3ccccc3)NC(=O)Cn3c(-c4ccc(F)cc4)ncc(N)c3=O)nc2c1 (stereo not drawn),32.6 nM,68.6 nM,
COC(=O)c1ccc2oc(C(=O)C(Cc3ccccc3)NC(=O)Cn3c(-c4cccc(N)c4)ncc(N)c3=O)nc2c1 (stereo not drawn),855 nM,5.6 nM,
COC(=O)c1ccc2oc(C(=O)C(Cc3ccccc3)NC(=O)Cn3c(-c4cccc(F)c4)ncc(N)c3=O)nc2c1 (stereo not drawn),1770 nM,14.3 nM,
COC(=O)c1ccc2oc(C(=O)C(Cc3ccccc3)NC(=O)Cn3c(-c4cccc(Cl)c4)ncc(N)c3=O)nc2c1 (stereo not drawn),3820 nM,26.1 nM,
Nc1cnc(-c2ccc(F)cc2)n(CC(=O)NC(Cc2ccccc2)C(=O)c2nc3cc(F)ccc3o2)c1=O (stereo not drawn),65.1 nM,,
COC(=O)c1ccc2oc(C(=O)C(Cc3ccccc3)NC(=O)Cn3c(-c4cccc(C)c4)ncc(N)c3=O)nc2c1 (stereo not drawn),47.7 nM,44.2 nM,
CC(C)[C@H](N)C(=O)N1CCC[C@H]1C(=O)N[C@@H](Cc1ccccc1)C(=O)C(F)(F)F (H-Val-Pro-Phe-CF3),4400 nM,82.1 nM,
Nc1cnc(-c2ccc(F)cc2)n(CC(=O)NC(Cc2ccccc2)C(=O)c2nc3cc(O)ccc3o2)c1=O (stereo not drawn),2230 nM,2120 nM,
CC(C)C[C@H](NC(=O)[C@@H](NC(=O)N[C@@H](Cc1ccccc1)C(=O)O)C1CCN=C(N)N1)C(=O)N[C@H](C=O)Cc1ccccc1 (stereo partly drawn) [CHYMOSTATIN],,,Ki (Chymase [2]): 13.1 nM
Nc1cnc(-c2ccc(F)cc2)n(CC(=O)NC(Cc2ccccc2)C(=O)c2nc3cc(C(=O)O)ccc3o2)c1=O (stereo not drawn),133 nM,,
Nc1cnc(-c2ccc(F)cc2)n(CC(=O)NC(Cc2ccccc2)C(=O)c2nc3cc(-c4ccccc4)ccc3o2)c1=O (stereo not drawn),,,Ki (Chymase [2]): 174 nM
NC(=O)c1ccc2oc(C(=O)C(Cc3ccccc3)NC(=O)Cn3c(-c4ccc(F)cc4)ncc(N)c3=O)nc2c1 (stereo not drawn),53.4 nM,94 nM,
